From US9982008B2, “Preparation and uses of obeticholic acid” (Intercept Pharmaceuticals, Inc., priority 2012, dated 2018)

What was measured:
[1] = 1 week
Description: Briefly, the solid was suspended in water at a low pH (HCl 0.1 mol/L) and left to equilibrate at 25° C. for one week under slightly mixing. The saturate solution was filtered and the concentration of the compound in solution measured by HPLC-ES-MS/MS.

[2] = rat, in vivo, po, 20 mg/kg
Description: The study described below was carried out to evaluate the plasma kinetics after a single oral administration and the efficiency of the intestinal absorption and the pharmacokinetics of solid non-crystalline and crystalline forms of obeticholic acid. The profiles of obeticholic acid plasma concentration vs time, the tmax, Cmax and AUC after administration of obeticholic acid Form 1 (non-crystalline) or Form F were compared (see FIGS. 37-38)
Obeticholic acid Form 1 (non-crystalline) and Form F were administered to rats and in each animal blood was collected at different period of times for at least 3 hours. Six animals were studied for each form of obeticholic acid.
The formulation was prepared as a suspension in water at pH 4. The study model is adult male Sprague Dawley rats about 225 to about 250 g (Harlan Laboratories). Six animals were used per dosage route. The dosage is PO 20 mg/kg/5 mL. The animals were fasted overnight before treatment with the formulation of obeticholic acid. Oral administration was performed by gastric gavage.
On day one animals were be fitted with a cannula implanted in the left jugular vein (SOP VIVO/SAF6), anaesthesia was obtained by Isoflurane. The experiment was started after one day of recovery from surgery. About 500 μL of blood (250 μL of plasma) was taken via cannula in a heparinised syringe (Na Heparin) and collected immediately in microtubes in an ice/water bath. Within 1 hour, samples were centrifuged at 10000×g for 5 minutes at 4° C. Plasma was immediately transferred in microtubes and stored at −20° C. Samples of blood were collected 30 minutes, 1 hour, 1.3 hour, 2 hours, and 3 hour post-dose. Plasma samples were analyzed using the HPLC-ES/MS/MS quantitative method. Pharmacokinetics study was preformed using non-compartmental methods.

[3] = pKa determination by potentiometry (methanol/water, Yasuda-Shedlovsky extrapolation); assay type: physicochemical; conditions: 25° C., potentiometry with methanol as cosolvent, extrapolated to 0% co-solvent (Yasuda-Shedlovsky)
Description: pKa determination data were collected on a Sirius GlpKa instrument with a D-PAS attachment. Measurements were made at 25° C. in aqueous solution by UV and in methanol water mixtures by potentiometry. The titration media was ionic-strength adjusted (ISA) with 0.15 M KCl (aq). The values found in the methanol water mixtures were corrected to 0% co-solvent via a Yasuda-Shedlovsky extrapolation. The data were refined using Refinement Pro software v1.0. Prediction of pKa values was made using ACD pKa prediction software v9.
The pKa of obeticholic acid was measured by potentiometry using methanol as a cosolvent (FIG. 27) and extrapolated to 0% co-solvent using a Yasuda-Shedlovsky extrapolation (FIG. 28). The pKa enables determination of the proportion of the neutral and the ionized form of the compound at a given pH.

[4] = Log P determination by potentiometric titration (octanol/ISA water); assay type: physicochemical; conditions: potentiometry
Description: Data were collected by potentiometric titration on a Sirius GlpKa instrument using three ratios of octanol: ionic-strength adjusted (ISA) water to generate Log P, Log Pion, and Log D values. The data were refined using Refinement Pro software v1.0. Prediction of Log P values was made using ACD v9 and Syracuse KOWWIN v1.67 software.
Log P was predicted using ACD software then measured by potentiometry. Three titrations were performed at three different octanol/ISA water ratios, giving the difference curve plotted in FIG. 30. The black curve is the pure aqueous pKa titration and the 3 colored curves correspond to the three octanol/ISA water ratios. The shifts in pKa enable determination of Log P.
Log D is the distribution coefficient, representing the combined lipophilicity of all species present at a specific pH. Log P is a compound constant, which corresponds to the partition coefficient of the pure neutral species, while Log Pion is that of the pure ionized species. Log P and Log Pion can be determined from the lipophilicity curve, as the intersection of the Y axis with respectively the tangent at the start of the pH scale (when the molecule is purely in its neutral form) and the tangent at the end of the pH scale (when the molecule is completely ionized).

[5] = Gravimetric Vapor Sorption (GVS); assay type: physicochemical
Description: (§1) Sorption isotherms were obtained using a SMS DVS Intrinsic moisture sorption analyzer, controlled by DVS Intrinsic Control software v 1.0.0.30. The sample temperature was maintained at 25° C. by the instrument controls. The humidity was controlled by mixing streams of dry and wet nitrogen, with a total flow rate of 200 ml·min^−1. The relative humidity was measured by a calibrated Rotronic probe (dynamic range of 1.0-100% RH), located near the sample. The weight change, (mass relaxation) of the sample as a function of % RH (relative humidity) was constantly monitored by the microbalance (accuracy±0.005 mg).
5 to 20 mg of sample was placed in a tared mesh stainless steel basket under ambient conditions. The sample was loaded and unloaded at 40% RH and 25° C. (typical room conditions). A moisture sorption isotherm was performed as outlined below (2 scans giving 1 complete cycle). The standard isotherm was performed at 25° C. at 10% RH intervals over a 0.5-90% RH range. Data analysis was undertaken in Microsoft Excel using DVS Analysis Suite v6.0.0.7. Method Parameters for SMS DVS Intrinsic Experiments are as follows:
The sample was recovered after completion of the isotherm and re-analyzed by XRPD.
as §1, with “SMS Analysis Suite software.” for “DVS Intrinsic Control software v 1.0.0.30.”, “RH” for “RH (relative humidity)”
Typically 5-20 mg of sample was placed in a tared mesh stainless steel basket under ambient conditions. The sample was loaded and unloaded at 40% RH and 25° C. (typical room conditions). A moisture sorption isotherm was performed as outlined below (2 scans giving 1 complete cycle). […]

Compound	Water solubility [1]	Plasma concentration of tauro conjugate, crystalline form compared with Form 1 [2]	Plasma obeticholic acid concentration after 3 hours relative to Cmax [2]	Time after which Cmax is achieved ([2]; pH 4)	Measured pKa [3]	Measured LogD7.4 ([4]; octanol/ISA water, pH 7.4)	Measured LogPion ([4]; octanol/ISA water, pure ionized species)	Measured LogP ([4]; three octanol/ISA water ratios)	Cmax, Form 1 compared with Form F [2]	Time of early plasma concentration peak [2]	Time of second plasma concentration peak [2]	GVS water uptake / weight change ([5]; 25° C., 0 to 90% RH)	Hygroscopicity (GVS) ([5]; 25° C., 0 to 90% RH, in words)	XRPD analysis after GVS ([5]; sample recovered after isotherm)
CC[C@H]1[C@@H](O)[C@@H]2[C@H](CC[C@]3(C)[C@@H]([C@H](C)CCC(=O)O)CC[C@@H]23)[C@@]2(C)CC[C@@H](O)C[C@@H]12 [Form F, obeticholic acid]	9.1 µM	higher concentration	almost half of the Cmax	1.5 h										
obeticholic acid [Form 1]					4.82	2.98	1.58	5.54	lower	30 min	2 h	3.8%	moderately hygroscopic	still non-crystalline
